{
  "source": "patent EP4273147A1",
  "about": "“SUBSTITUTED SPIROLACTAMS, SALTS THEREOF AND THEIR USE AS HERBICIDALLY ACTIVE SUBSTANCES” (Bayer Aktiengesellschaft, priority 2022, dated 2023)",
  "key": {"ECHCG [1]": {"tested_on": "ECHCG", "test": "Herbicidal pre-emergence action (Table A2)", "assay_type": "in vivo, Echinochloa crus-galli", "details": "application rate 320 g/ha; visual grading after ca. 3 weeks", "procedure,_shortened": "(§1)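 Seeds of monocot and dicot weeds were sown in pots of sandy loam and covered with soil. Each pot held a double sowing: one monocotyledonous plus one dicotyledonous species.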"}, "LOLRI": {"tested_on": "LOLRI", "test": "Herbicidal pre-emergence action (Table A3)", "assay_type": "in vivo, Lolium rigidum", "details": "application rate 320 g/ha; visual grading after ca. 3 weeks", "procedure,_shortened": "as §1"}, "MATIN [2]": {"tested_on": "MATIN", "test": "Herbicidal pre-emergence action (Table A4)", "assay_type": "in vivo, Matricaria inodora", "details": "application rate 1280 g/ha; visual grading after ca. 3 weeks", "procedure,_shortened": "as §1"}, "SETVI [3]": {"tested_on": "SETVI", "test": "Herbicidal pre-emergence action (Table A5)", "assay_type": "in vivo, Setaria viridis", "details": "application rate 320 g/ha; visual grading after ca. 3 weeks", "procedure,_shortened": "as §1"}, "STEME": {"tested_on": "STEME", "test": "Herbicidal pre-emergence action (Table A6)", "assay_type": "in vivo, Stellaria media", "details": "application rate 320 g/ha; visual grading after ca. 3 weeks", "procedure,_shortened": "as §1"}, "POAAN": {"tested_on": "POAAN", "test": "Herbicidal pre-emergence action (Table A7)", "assay_type": "in vivo, Poa annua", "details": "application rate 320 g/ha; visual grading after ca. 3 weeks", "procedure,_shortened": "as §1"}, "ALOMY [4]": {"tested_on": "ALOMY", "test": "Herbicidal pre-emergence action, section C (Table C2)", "assay_type": "in vivo, Alopecurus myosuroides", "details": "application rate 320 g/ha; visual grading after ca. 3 weeks"}, "DIGSA": {"tested_on": "DIGSA", "test": "Herbicidal pre-emergence action, section C (Table C5)", "assay_type": "in vivo, Digitaria sanguinalis", "details": "application rate 80 g/ha; visual grading after ca. 3 weeks"}, "ECHCG [5]": {"tested_on": "ECHCG", "test": "Herbicidal pre-emergence action, section C (Table C6)", "assay_type": "in vivo, Echinochloa crus-galli", "details": "application rate 80 g/ha; visual grading after ca. 3 weeks"}, "MATIN [6]": {"tested_on": "MATIN", "test": "Herbicidal pre-emergence action, section C (Table C8)", "assay_type": "in vivo, Matricaria inodora", "details": "application rate 320 g/ha; visual grading after ca. 3 weeks"}, "SETVI [7]": {"tested_on": "SETVI", "test": "Herbicidal pre-emergence action, section C (Table C10)", "assay_type": "in vivo, Setaria viridis", "details": "application rate 80 g/ha; visual grading after ca. 3 weeks"}, "VERPE [8]": {"tested_on": "VERPE", "test": "Herbicidal pre-emergence action, section C (Table C11)", "assay_type": "in vivo, Veronica persica", "details": "application rate 80 g/ha; visual grading after ca. 3 weeks"}, "VIOTR [9]": {"tested_on": "VIOTR", "test": "Herbicidal pre-emergence action, section C (Table C12)", "assay_type": "in vivo, Viola tricolor", "details": "application rate 320 g/ha; visual grading after ca. 3 weeks"}, "ZEAMX [10]": {"tested_on": "ZEAMX", "test": "Pre-emergence effects on crop plants (Table D1)", "assay_type": "in vivo, Zea mays", "details": "crop plant; application rate 80 g/ha; visual grading after ca. 3 weeks"}, "TRZAS [11]": {"tested_on": "TRZAS", "test": "Pre-emergence effects on crop plants (Table D2)", "assay_type": "in vivo, Triticum aestivum", "details": "crop plant; application rate 320 g/ha; visual grading after ca. 3 weeks"}, "GLXMA [12]": {"tested_on": "GLXMA", "test": "Pre-emergence effects on crop plants (Table D4)", "assay_type": "in vivo, Glycine max", "details": "crop plant; application rate 320 g/ha; visual grading after ca. 3 weeks"}, "BRSNW [13]": {"tested_on": "BRSNW", "test": "Pre-emergence effects on crop plants (Table D5)", "assay_type": "in vivo, Brassica napus", "details": "crop plant; application rate 320 g/ha; visual grading after ca. 3 weeks"}, "ALOMY [14]": {"tested_on": "ALOMY", "test": "Herbicidal post-emergence action, section E (Table E2)", "assay_type": "in vivo, Alopecurus myosuroides", "details": "application rate 320 g/ha; assessed visually after ca. 3 weeks", "from_the_text": "(§2) 2 to 3 weeks after sowing, the test plants were sprayed in the single-leaf stage."}, "ECHCG [15]": {"tested_on": "ECHCG", "test": "Herbicidal post-emergence action, section E (Table E5)", "assay_type": "in vivo, Echinochloa crus-galli", "details": "application rate 320 g/ha; assessed visually after ca. 3 weeks", "from_the_text": "as §2"}, "POLCO": {"tested_on": "POLCO", "test": "Herbicidal post-emergence action, section E (Table E7)", "assay_type": "in vivo, Polygonum convolvulus", "details": "application rate 320 g/ha; assessed visually after ca. 3 weeks", "from_the_text": "as §2"}, "VERPE [16]": {"tested_on": "VERPE", "test": "Herbicidal post-emergence action, section E (Table E9)", "assay_type": "in vivo, Veronica persica", "details": "application rate 320 g/ha; assessed visually after ca. 3 weeks", "from_the_text": "as §2"}, "VIOTR [17]": {"tested_on": "VIOTR", "test": "Herbicidal post-emergence action, section E (Table E10)", "assay_type": "in vivo, Viola tricolor", "details": "application rate 320 g/ha; assessed visually after ca. 3 weeks", "from_the_text": "as §2"}, "ZEAMX [18]": {"tested_on": "ZEAMX", "test": "Post-emergence effects on crop plants (Table F1)", "assay_type": "in vivo, Zea mays", "details": "application rate 320 g/ha, crop plant ZEAMX", "from_the_text": "as §2"}, "TRZAS [19]": {"tested_on": "TRZAS", "test": "Post-emergence effects on crop plants (Table F2)", "assay_type": "in vivo, Triticum aestivum", "details": "application rate 320 g/ha, crop plant TRZAS", "from_the_text": "as §2"}, "ORYZA [20]": {"tested_on": "ORYZA", "test": "Post-emergence effects on crop plants (Table F3)", "assay_type": "in vivo, Oryza sativa", "details": "application rate 320 g/ha, crop plant ORYZA", "from_the_text": "as §2"}, "GLXMA [21]": {"tested_on": "GLXMA", "test": "Post-emergence effects on crop plants (Table F4)", "assay_type": "in vivo, Glycine max", "details": "application rate 80 g/ha, crop plant GLXMA", "from_the_text": "as §2"}, "BRSNW [22]": {"tested_on": "BRSNW", "test": "Post-emergence effects on crop plants (Table F5)", "assay_type": "in vivo, Brassica napus", "details": "application rate 80 g/ha, crop plant BRSNW", "from_the_text": "as §2"}, "ORYZA [23]": {"tested_on": "ORYZA", "test": "Pre-emergence effects on crop plants (Table D3)", "details": "crop plant; application rate 320 g/ha; visual grading after ca. 3 weeks"}},
  "data": [
    {"smiles": "O=C1N(Cc2cc(F)ccc2F)CCCC12CCCN(Cc1cc(F)ccc1F)C2=O", "note": "(racemic) [I-017]", "values": [
      {"measurement": "pre-emergence activity against ECHCG", "setting": "ECHCG [1]", "result": 100, "unit": "%"},
      {"measurement": "pre-emergence activity against LOLRI", "setting": "LOLRI", "result": 100, "unit": "%"},
      {"measurement": "pre-emergence activity against MATIN", "setting": "MATIN [2]", "result": 90, "unit": "%"},
      {"measurement": "pre-emergence activity against SETVI", "setting": "SETVI [3]", "result": 100, "unit": "%"},
      {"measurement": "pre-emergence activity against STEME", "setting": "STEME", "result": 90, "unit": "%"},
      {"measurement": "pre-emergence activity against POAAN", "setting": "POAAN", "result": 100, "unit": "%"},
      {"measurement": "pre-emergence activity against ALOMY", "setting": "ALOMY [4]", "result": 90, "unit": "%"},
      {"measurement": "pre-emergence activity against DIGSA", "setting": "DIGSA", "result": 100, "unit": "%"},
      {"measurement": "pre-emergence activity against ECHCG", "setting": "ECHCG [5]", "result": 100, "unit": "%"},
      {"measurement": "pre-emergence activity against MATIN", "setting": "MATIN [6]", "result": 80, "unit": "%"},
      {"measurement": "pre-emergence activity against SETVI", "setting": "SETVI [7]", "result": 90, "unit": "%"},
      {"measurement": "pre-emergence activity against VERPE", "setting": "VERPE [8]", "result": 90, "unit": "%"},
      {"measurement": "pre-emergence activity against VIOTR", "setting": "VIOTR [9]", "result": 80, "unit": "%"},
      {"measurement": "pre-emergence activity against ZEAMX", "setting": "ZEAMX [10]", "result": 10, "unit": "%"},
      {"measurement": "pre-emergence activity against TRZAS", "setting": "TRZAS [11]", "result": 10, "unit": "%"},
      {"measurement": "pre-emergence activity against GLXMA", "setting": "GLXMA [12]", "result": 20, "unit": "%"},
      {"measurement": "pre-emergence activity against BRSNW", "setting": "BRSNW [13]", "result": 20, "unit": "%"},
      {"measurement": "post-emergence activity against ALOMY", "setting": "ALOMY [14]", "result": 80, "unit": "%"},
      {"measurement": "post-emergence activity against ECHCG", "setting": "ECHCG [15]", "result": 80, "unit": "%"},
      {"measurement": "post-emergence activity against POLCO", "setting": "POLCO", "result": 100, "unit": "%"},
      {"measurement": "post-emergence activity against VERPE", "setting": "VERPE [16]", "result": 80, "unit": "%"},
      {"measurement": "post-emergence activity against VIOTR", "setting": "VIOTR [17]", "result": 80, "unit": "%"},
      {"measurement": "post-emergence activity against ZEAMX", "setting": "ZEAMX [18]", "result": 10, "unit": "%"},
      {"measurement": "post-emergence activity against TRZAS", "setting": "TRZAS [19]", "result": 10, "unit": "%"},
      {"measurement": "post-emergence activity against ORYZA", "setting": "ORYZA [20]", "result": 0, "unit": "%"},
      {"measurement": "post-emergence activity against GLXMA", "setting": "GLXMA [21]", "result": 20, "unit": "%"},
      {"measurement": "post-emergence activity against BRSNW", "setting": "BRSNW [22]", "result": 0, "unit": "%"},
      {"measurement": "pre-emergence activity against ORYZA", "setting": "ORYZA [23]", "result": 20, "unit": "%"}
    ]}
  ]
}
